Consider 16 compounds from patent publication US9839642B2, “Beta-tetrazolyl-propionic acids as metallo-beta-lactamase inhibitors” (priority 2014, dated 2017).

Assay [1] relates to Serratia marcescens expressing IMP-1 (CL5741). Briefly: Antibiotic potentiation activity: synergistic concentration (MITC95) with imipenem, growth by OD600. In kind it is cell-based. Conditions: S. marcescens CL5741 (IMP-1), 95% inhibition of growth. The essentials: (§1)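 MITC95 = lowest inhibitor concentration giving 95% growth inhibition, read by absorbance after 22–24 h at 35° C. Compound range 200 μM to 0.195 μM, imipenem fixed at 1 or 4 μg/ml, bacteria in 1.1×CAMHB from saline suspension diluted 1:100.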

The subject of assay [2] is Escherichia coli expressing NDM-1 (CLB30016). Described as above. In kind it is cell-based. Conditions: E. coli CLB30016 (NDM-1), 95% inhibition of growth. The procedure, abridged:
as §1

Assay [3] has as its system Klebsiella pneumoniae expressing VIM-1 (IHMA599644). The description is as above. In kind it is cell-based. Conditions: K. pneumoniae IHMA599644 (VIM-1), 95% inhibition of growth. The procedure, abridged: as §1
In assay [4] the target is VIM-1 (Pseudomonas aeruginosa, UniProt A0A0F7KYQ8). Briefly: Enzyme activity: determination of IC50, fluorescence assay with CCF2-FA substrate. It counts as biochemical. Conditions: VIM-1 enzyme 30 pM, CCF2-FA 1.25 μM, 2 hours at 25° C.; read-out: VIM1 IC50. The essentials: (§2)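 In pH 7 phosphate buffer (100 mM) with 10 μM ZnSO4 and 0.005% Tween-20, CCF2-FA substrate (1.25 μM final) was hydrolysed for 2 h at 25 °C by NDM-1, IMP-1 or VIM-1 at 1, 2 or 30 pM in the presence of inhibitor at 20–0.00063 μM. Emission 460 nm/excitation 405 nm; 4-parameter curve fit gave IC50.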

In assay [5] the target is NDM-1 (Klebsiella pneumoniae, UniProt C7C422). Described as above. It counts as biochemical. Conditions: NDM-1 enzyme 1 pM, CCF2-FA 1.25 μM, 2 hours at 25° C.; read-out: NDM1 IC50. The procedure, abridged:
as §2

Assay [6] addresses IMP-1 (Serratia marcescens, UniProt P52699). The assay is described as above. In kind it is biochemical. Conditions: IMP-1 enzyme 2 pM, CCF2-FA 1.25 μM, 2 hours at 25° C.; read-out: IMP1 IC50. The essentials:
as §2

Sequence of NDM-1 (C7C422 29-270, looked up, species assumed): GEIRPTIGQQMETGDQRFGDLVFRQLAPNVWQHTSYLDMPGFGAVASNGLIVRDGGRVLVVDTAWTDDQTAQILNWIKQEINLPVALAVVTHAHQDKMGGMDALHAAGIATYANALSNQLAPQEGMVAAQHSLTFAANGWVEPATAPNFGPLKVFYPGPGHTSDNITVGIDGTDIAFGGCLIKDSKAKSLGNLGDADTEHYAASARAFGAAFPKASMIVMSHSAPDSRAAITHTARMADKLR
Sequence of IMP-1 (P52699 19-246, looked up, species assumed): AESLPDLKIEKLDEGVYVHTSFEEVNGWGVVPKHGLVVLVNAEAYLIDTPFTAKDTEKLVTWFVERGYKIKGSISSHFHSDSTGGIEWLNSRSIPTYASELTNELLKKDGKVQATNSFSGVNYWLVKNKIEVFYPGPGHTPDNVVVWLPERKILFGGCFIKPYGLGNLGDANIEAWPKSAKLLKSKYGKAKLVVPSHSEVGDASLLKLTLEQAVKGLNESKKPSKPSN

For the compound `CC(C)C[C@H](C(=O)O)[C@H](Cc1ccc(N2CC(C)(CN)C2)nc1)c1nnn[nH]1` [Example 325, (2S)-2-[(1S)-2-{6-[3-(aminomethyl)-3-methylazetidin-1-yl]pyridin-3-yl}-1-(1H-tetrazol-5-yl)ethyl]-4-methylpentanoic acid], the “IMP1 SM5741 MITC95” value in assay [1] was 75 µM. The “NDM1 EC30016 MITC95” value in assay [2] was found to be 12.5 µM. Further, the “VIM1 KP599644 MITC95” value in assay [3] is 75 µM. Besides, the IC50 (usually the concentration that inhibits the measured activity by half) was 36 nM in assay [4], 1100 nM in assay [5] and 4400 nM in assay [6].
Regarding `CC(C)C[C@H](C(=O)O)[C@H](Cc1ccc(N2CC(CCN)C2)nc1)c1nnn[nH]1` [Example 326, (2S)-2-[(1S)-2-{6-[3-(2-aminoethyl)azetidin-1-yl]pyridin-3-yl}-1-(1H-tetrazol-5-yl)ethyl]-4-methylpentanoic acid], the “IMP1 SM5741 MITC95” value in assay [1] is more than 200 µM. For the same compound, in assay [2], the “NDM1 EC30016 MITC95” value turned out to be 50 µM. Besides, the “VIM1 KP599644 MITC95” value in assay [3] amounted to 6.2 µM. Moreover, the figures for the IC50 in assay [4], in assay [5] and in assay [6] were 29 nM, 6400 nM and more than 20000 nM, respectively.
Consider `CC(C)C[C@H](C(=O)O)[C@H](Cc1ccc(N2CC(N)C2)nc1)c1nnn[nH]1` [Example 327, (2S)-2-[(1S)-2-[6-(3-aminoazetidin-1-yl)pyridin-3-yl]-1-(1H-tetrazol-5-yl)ethyl]-4-methylpentanoic acid], for which the “IMP1 SM5741 MITC95” value in assay [1] amounted to 38 µM. Also, the “NDM1 EC30016 MITC95” value in assay [2] was found to be 9.4 µM. For the same compound, in assay [3], the “VIM1 KP599644 MITC95” value worked out at 38 µM. Besides, the IC50 in assay [4] came out at 17 nM; in assay [5], 470 nM; in assay [6], 2600 nM.
Consider `CC(C)C[C@H](C(=O)O)[C@H](Cc1ccc(N2CC3(CNC(=O)C3)C2)nc1)c1nnn[nH]1` [Example 328, (2S)-4-methyl-2-[(1S)-2-[6-(7-oxo-2,6-diazaspiro[3.4]oct-2-yl)pyridin-3-yl]-1-(1H-tetrazol-5-yl)ethyl]pentanoic acid], for which the “IMP1 SM5741 MITC95” value in assay [1] worked out at 50 µM. Moreover, in assay [2], the “NDM1 EC30016 MITC95” value was 9.4 µM. Moreover, the “VIM1 KP599644 MITC95” value in assay [3] was 50 µM. Further, the IC50 in assay [4] turned out to be 12 nM; in assay [5], 260 nM; in assay [6], 1100 nM.
Regarding `CC(C)C[C@H](C(=O)O)[C@H](Cc1ccc(N2CC(N3CCOCC3)C2)nc1)c1nnn[nH]1` [Example 329, (2S)-4-methyl-2-[(1S)-2-[6-(3-morpholin-4-ylazetidin-1-yl)pyridin-3-yl]-1-(1H-tetrazol-5-yl)ethyl]pentanoic acid], the “IMP1 SM5741 MITC95” value in assay [1] was 25 µM. Moreover, the “NDM1 EC30016 MITC95” value in assay [2] turned out to be 12.5 µM. Besides, the “VIM1 KP599644 MITC95” value in assay [3] was more than 200 µM. In addition, the IC50 in assay [4] was 49 nM; in assay [5] it was 170 nM; in assay [6], 450 nM.
In the case of `CC(C)C[C@H](C(=O)O)[C@H](Cc1ccc(N2CC(CO)(CO)C2)nc1)c1nnn[nH]1` [Example 330, (2S)-2-[(1S)-2-{6-[3,3-bis(hydroxymethyl)azetidin-1-yl]pyridin-3-yl}-1-(1H-tetrazol-5-yl)ethyl]-4-methylpentanoic acid], the “IMP1 SM5741 MITC95” value in assay [1] turned out to be 25 µM. In assay [2], the “NDM1 EC30016 MITC95” value is 16 µM. In assay [3], the “VIM1 KP599644 MITC95” value is 100 µM. Further, the figures for the IC50 in assay [4], in assay [5] and in assay [6] were 22 nM, 100 nM and 400 nM, respectively.
`CC(C)C[C@H](C(=O)O)[C@H](Cc1ccc(N2CC(C(C)(C)O)C2)nc1)c1nnn[nH]1` [Example 331, (2S)-2-[(1S)-2-{6-[3-(1-hydroxy-1-methylethyl)azetidin-1-yl]pyridin-3-yl}-1-(1H-tetrazol-5-yl)ethyl]-4-methylpentanoic acid]: the “IMP1 SM5741 MITC95” value in assay [1] was found to be 18.8 µM. Moreover, the “NDM1 EC30016 MITC95” value in assay [2] came to 9.4 µM. In addition, the “VIM1 KP599644 MITC95” value in assay [3] was 100 µM. The IC50 was determined as 49 nM in assay [4], 130 nM in assay [5] and 340 nM in assay [6].
As to `CC(C)C[C@H](C(=O)O)[C@H](Cc1ccc(N2CC(N3CCN(C)CC3)C2)nc1)c1nnn[nH]1` [Example 332, (2S)-4-methyl-2-[(1S)-2-{6-[3-(4-methylpiperazin-1-yl)azetidin-1-yl]pyridin-3-yl}-1-(1H-tetrazol-5-yl)ethyl]pentanoic acid], the “IMP1 SM5741 MITC95” value in assay [1] worked out at 12.5 µM. Also, in assay [2], the “NDM1 EC30016 MITC95” value stood at 4.7 µM. The “VIM1 KP599644 MITC95” value in assay [3] amounted to 50 µM. Also, the IC50 is 24 nM in assay [4], 160 nM in assay [5] and 540 nM in assay [6].
On to `CC(C)C[C@H](C(=O)O)[C@H](Cc1ccc(N2CC(CCO)C2)nc1)c1nnn[nH]1` [Example 333, (2S)-2-[(1S)-2-{6-[3-(2-hydroxyethyl)azetidin-1-yl]pyridin-3-yl}-1-(1H-tetrazol-5-yl)ethyl]-4-methylpentanoic acid], for which, in assay [1], the “IMP1 SM5741 MITC95” value is 12.5 µM. Further, the “NDM1 EC30016 MITC95” value in assay [2] turned out to be 1.6 µM. Further, in assay [3], the “VIM1 KP599644 MITC95” value amounted to 38 µM. Further, the IC50 was determined as 8.2 nM in assay [4], 58 nM in assay [5] and 170 nM in assay [6].
With `CC(C)C[C@H](C(=O)O)[C@H](Cc1ccc(N2CC(S(C)(=O)=O)C2)nc1)c1nnn[nH]1` [Example 335, (2S)-4-methyl-2-[(1S)-2-{6-[3-(methylsulfonyl)azetidin-1-yl]pyridin-3-yl}-1-(1H-tetrazol-5-yl)ethyl]pentanoic acid], the “IMP1 SM5741 MITC95” value in assay [1] is 3.1 µM. The “NDM1 EC30016 MITC95” value in assay [2] amounted to 6.2 µM. The “VIM1 KP599644 MITC95” value in assay [3] was found to be 75 µM. The values for the IC50 in assay [4], in assay [5] and in assay [6] were 4.9 nM, 59 nM and 56 nM, respectively.
Take `CC(C)C[C@H](C(=O)O)[C@H](Cc1ccc(N2CC3(CCNC3)C2)nc1)c1nnn[nH]1` [Example 336, (2S)-2-[(1S)-2-[6-(2,6-diazaspiro[3.4]oct-2-yl)pyridin-3-yl]-1-(1H-tetrazol-5-yl)ethyl]-4-methylpentanoic acid]: in assay [1], the “IMP1 SM5741 MITC95” value worked out at 25 µM. For the same compound, the “NDM1 EC30016 MITC95” value in assay [2] worked out at 3.1 µM. Besides, the “VIM1 KP599644 MITC95” value in assay [3] came to 25 µM. In addition, the IC50 came to 20 nM in assay [4], 180 nM in assay [5] and 1200 nM in assay [6].
For the compound `CC(C)C[C@H](C(=O)O)[C@H](Cc1ccc(N2CC3(CN(C)C(=O)O3)C2)nc1)c1nnn[nH]1` [Example 337, (2S)-4-methyl-2-[(1S)-2-[6-(7-methyl-6-oxo-5-oxa-2,7-diazaspiro[3.4]oct-2-yl)pyridin-3-yl]-1-(1H-tetrazol-5-yl)ethyl]pentanoic acid], in assay [1], the “IMP1 SM5741 MITC95” value stood at 18.8 µM. Moreover, the “NDM1 EC30016 MITC95” value in assay [2] came to 9.4 µM. The “VIM1 KP599644 MITC95” value in assay [3] amounted to 75 µM. For the same compound, the IC50 in assay [4] was 10 nM; in assay [5] it was 62 nM; in assay [6] it was 300 nM.
Consider `CC(C)C[C@H](C(=O)O)[C@H](Cc1ccc(N2CC(O)(C(F)(F)F)C2)nc1)c1nnn[nH]1` [Example 338, (2S)-2-[(1S)-2-{6-[3-hydroxy-3-(trifluoromethyl)azetidin-1-yl]pyridin-3-yl}-1-(1H-tetrazol-5-yl)ethyl]-4-methylpentanoic acid], for which the “IMP1 SM5741 MITC95” value in assay [1] came to 9.4 µM. In addition, in assay [2], the “NDM1 EC30016 MITC95” value came out at 31 µM. In addition, the “VIM1 KP599644 MITC95” value in assay [3] turned out to be 150 µM. Moreover, the IC50 was determined as 38 nM in assay [4], 110 nM in assay [5] and 200 nM in assay [6].
As to `CCC[C@H](C(=O)O)[C@H](Cc1cccc(-c2cccnc2)c1)c1nn[nH]n1` [Example 339, (2S)-2-[(1S)-2-(3-pyridin-3-ylphenyl)-1-(2H-tetrazol-5-yl)ethyl]pentanoic acid], in assay [1], the “IMP1 SM5741 MITC95” value was determined as 6.2 µM. The “NDM1 EC30016 MITC95” value in assay [2] came out at 18.8 µM. For the same compound, the “VIM1 KP599644 MITC95” value in assay [3] was determined as 38 µM. In addition, the IC50 was found to be 1.4 nM in assay [4], 3.6 nM in assay [5] and 160 nM in assay [6].
`CCC[C@H](C(=O)O)[C@H](Cc1cccc(-c2ccnc(N3CCNCC3)c2)c1)c1nn[nH]n1` [Example 340, (2S)-2-[(1S)-2-[3-(2-piperazin-1-ylpyridin-4-yl)phenyl]-1-(2H-tetrazol-5-yl)ethyl]pentanoic acid]: the “IMP1 SM5741 MITC95” value in assay [1] turned out to be 4.7 µM. In assay [2], the “NDM1 EC30016 MITC95” value turned out to be 38 µM. The “VIM1 KP599644 MITC95” value in assay [3] is 50 µM. Further, the IC50 in assay [4] was 3.5 nM; in assay [5] it was 46 nM; in assay [6], 180 nM.
For `CCC[C@H](C(=O)O)[C@H](Cc1cccc(-c2cccc(C(N)=O)c2)c1)c1nn[nH]n1` [Example 341, (2S)-2-[(1S)-2-(3′-carbamoylbiphenyl-3-yl)-1-(2H-tetrazol-5-yl)ethyl]pentanoic acid], the “IMP1 SM5741 MITC95” value in assay [1] came out at 2.3 µM. Besides, the “NDM1 EC30016 MITC95” value in assay [2] is 18.8 µM. Besides, the “VIM1 KP599644 MITC95” value in assay [3] is 18.8 µM. In addition, the IC50 stood at 0.99 nM in assay [4], 6.6 nM in assay [5] and 110 nM in assay [6].
